Test results: patent US20100317849A1, “Process For Producing Pure And Stable Form Of 2-Methyl-4-(4-Methyl-1-Piperazinyl) -10H-Thieno[2,3-B] [1,5] Benzodiazepine” (priority 2006, published 2010)
Entries after “also recorded” stand apart in the source; their conditions may differ.

Key:
[1] = Stability of Olanzapine Form I at stressed conditions (40° C./75% RH), HPLC purity, total impurity and colour (UV absorbance at 430 nm); assay type: physicochemical; conditions: for Absorbance at 430 nm Log I/Io: colour; for Stability under stressed conditions: stressed conditions (40° C.)
Experimental: The colour of Olanzapine is determined by following method:
Olanzapine 50 mg was dissolved in 50 ml 0.1 N HCl in methanol, which was diluted to prepare 100 μgm/ml, 200 μgm/ml, 500 μgm/ml of Olanzapine solution. […] Calibration curve was plotted between absorbance and concentration.
% of Colour=Amount of colour from calibration curve×100/Weight of sample taken.

[2] = as above; assay type: physicochemical
[3] = cited from earlier work

## Cc1cc2c(s1)Nc1ccccc1N=C2N1CCN(C)CC1 [Olanzapine Form I, 2-methyl-4-(4-methyl-1-piperazinyl)-10H-thieno[2,3-b][1,5]benzodiazepine]
[1]; 60 DAYS/40° C./75% RH
  Absorbance at 430 nm Log I/Io: 0.407
[1]; 120 DAYS/40° C./75% RH
  Absorbance at 430 nm Log I/Io: 0.4034
[1]; 180 DAYS/40° C./75% RH
  Absorbance at 430 nm Log I/Io: 0.4026
[1]; Initial
  Absorbance at 430 nm Log I/Io: 0.4
[1]; high temperature (40° C.), high moisture or stress conditions
  Colour stability upon storage: colour stable; also recorded: stable colour
[1]; listed as Form I
  Stability under stressed conditions: highly stable
[1]; listed as olanzapine
  Stability under stressed conditions: high stability
[2]; 30 DAYS/40° C./75% RH
  Impurity Profile Chromatographic purity %: 99.94%
  Impurity Profile Total Imp. % age: 0.06 % age
[2]; 30 DAYS/40° C./75% RH, colour
  Absorbance at 430 nm Log I/Io: 0.402
[2]; 60 DAYS/40° C./75% RH
  Impurity Profile Chromatographic purity %: 99.96%
  Impurity Profile Total Imp. % age: 0.04 % age
[2]; 120 DAYS/40° C./75% RH
  Impurity Profile Chromatographic purity %: 99.95%
  Impurity Profile Total Imp. % age: 0.05 % age
[2]; 180 DAYS/40° C./75% RH
  Impurity Profile Chromatographic purity %: 99.93%
  Impurity Profile Total Imp. % age: 0.07 % age
[2]; Initial
  Impurity Profile Chromatographic purity %: 99.97%
  Impurity Profile Total Imp. % age: 0.03 % age
[3]; Form I crystallized from acetonitrile per U.S. Pat. No. 5,229,382, on standing
  Stability / colour on standing: metastable and changes its color on standing
[3]; Form I prepared from alcoholic solvent, U.S. Pat. No. 6,906,062, room temperature
  Stability at room temperature: stable form at room temperature
